In patent EP4656194A1, “COMPOSITION FOR PREVENTING OR TREATING POST-TRAUMATIC STRESS DISORDER, COMPRISING PHOSPHODIESTERASE TYPE 5 INHIBITOR AS ACTIVE INGREDIENT” (Aribio Co., Ltd, priority 2023, dated 2024):

Columns and labels:
[1] = tested on: context-specific fear memory; assay: Passive avoidance test; assay type: in vivo; conditions: 12 MPK p.o. once daily, after 15 doses, followed by electric shock; male ICR mice
Method: (§1) Twenty-eight male ICR mice, 5 weeks old, weighing approximately 27-30 g, were used. The animals were housed in a controlled environment with a temperature of 26.8 ± 0.5°C, relative humidity of 48.4 ± 1.7%, and lighting from 07:00 to 19:00. They were fed a standard diet (AIN-93G diet) and given free access to drinking water. After 7 days of acclimation and habituation, healthy animals were selected for the experiments.
(§2) Mirodenafil was dissolved in 10 mL of distilled water to prepare a 12 mg/kg (MPK) solution. Sildenafil and tadalafil were similarly prepared at 12 MPK each.
(§3) • 1) Control group (n=7): p.o. administration of distilled water (D.W.) • 2) Experimental group 1 (n=7): p.o. administration of mirodenafil (12 MPK) • 3) Experimental group 2 (n=7): p.o. administration of sildenafil (12 MPK) • 4) Experimental group 3 (n=7): p.o. administration of tadalafil (12 MPK)
(§4) Following 7 days of acclimation, the control group received distilled water orally once daily for 15 days, and the experimental groups received their respective drugs orally once daily for 15 days.
The passive avoidance step-through apparatus was illuminated in the bright chamber at 50% lightness. Mice were placed inside and allowed to move freely between the bright and dark chambers for 5 minutes. After 5 minutes, accommodation was terminated, and mice rested in their home cages.
Mice that completed accommodation were placed in the bright chamber under the same lighting conditions. When the mouse fully entered the dark chamber (all four paws on the floor), an electric shock (0.4 mA, 2 seconds, repeated twice with a 2-second interval) was delivered (maximum latency: 65 seconds, single session). […]
Mice that completed training were placed again in the bright chamber under the same conditions. The latency to enter the dark chamber (all four paws touching the floor) was recorded without shock (maximum latency: 300 seconds). […]
(§5) Data were expressed as mean ± standard error of the mean (SEM). Statistical significance was assessed by T-test with thresholds of P < 0.01 or *0.01 < P < 0.05. […]

[2] = tested on: object recognition and memory; assay: Novel object recognition test; assay type: in vivo, male ICR mice; conditions: 12 MPK p.o. once daily, eight days after drug administration; control group 49.0%
Method: as §1, §2, §3, §4
Mice were placed in the center of a rat cage and allowed to explore freely for 5 minutes (accommodation). Afterward, mice rested in their home cages.
Following accommodation, two identical objects (Object A and Object B) of the same color, shape, and size were placed at fixed intervals in the cage. […]
Twenty-four hours after Training 1, mice were reintroduced to the cage with the same objects (A and B) spaced similarly. Exploration time of each object was recorded for 5 minutes. […]
Twenty-four hours after Training 2, mice were introduced to the cage containing one familiar object (A) and one novel object (C) differing in color, shape, or size. Exploration time was recorded for 5 minutes. The percentage of time spent exploring each object was calculated using the following formula: (Formula to calculate % exploration time for objects) • i. […]
as §5

[3] = tested on: spatial recognition and memory; assay: Y-maze test; assay type: in vivo, male ICR mice; conditions: 12 MPK p.o. once daily, ten days after drug administration; control 61.8%
Method: as §1, §2, §3, §4
Mice were placed at the center of a Y-maze and allowed to explore for 8 minutes. Entries were recorded when all four paws fully entered an arm. The maze was cleaned with 70% alcohol between tests. Spontaneous alternation behavior was analyzed using the Yamada statistical method. An alternation was counted when the mouse consecutively entered three different arms. The percentage of spontaneous alternation was calculated as (number of alternations / total arm entries) × 100. • iii. Recording data(ex): BCABCBABCBCABBCACBACCABCABCACBCABC • iv. [formula]
Data were expressed as mean ± standard error of the mean (SEM). Statistical significance was assessed by T-test with thresholds of P < 0.01 or *0.01 < P < 0.05. Data analysis and plotting were performed using Prism 8 software.

Row | SMILES | decrease of latency time compared to the control [1] | exploration of novel objects [2] | spontaneous alternation rates [3]
1 | CCCc1nn(C)c2c(=O)[nH]c(-c3cc(S(=O)(=O)N4CCN(C)CC4)ccc3OCC)nc12 [sildenafil] | 55.5% | 57.9% | 60.7%
2 | CN1CC(=O)N2[C@H](c3ccc4c(c3)OCO4)c3[nH]c4ccccc4c3C[C@@H]2C1=O [tadalafil] | 63.2% | 57.0% | 59.6%
3 | CCCOc1ccc(S(=O)(=O)N2CCN(CCO)CC2)cc1-c1nc2c(CCC)cn(CC)c2c(=O)[nH]1 [mirodenafil] | 73.5% | 53.7% | 58.4%
